Assay results published in ChEMBL document CHEMBL3588804, “Structure-activity relationship studies on acremomannolipin A, the potent calcium signal modulator with a novel glycolipid structure 3: role of the length of alditol side chain” (Bioorg Med Chem, 2015).
Calls of active or inactive are those of the source. No cut-off for these calls is given here.

What follows are compounds tested on Schizosaccharomyces pombe (assay: Suppression of Cl- sensitive growth defect in calcineurin gene deleted Schizosaccharomyces pombe (h+ leu1 ura4-D18 ppb1::ura4+) at 100 uM after 3 days by filter paper disk assay in presence of 0.11 M MgCl2 in YPD medium).

SMILES	Activity
CCCCCCCC(=O)O[C@@H]1[C@H](OC[C@@H](O)[C@@H](O)[C@H](O)[C@H](O)CO)O[C@H](COC(=O)CCCCC)[C@@H](OC(=O)CCCCC)[C@@H]1OC(=O)CCCCC	Active
CCCCCCCC(=O)O[C@@H]1[C@H](OC[C@@H](O)CO)O[C@H](COC(=O)CCCCC)[C@@H](OC(=O)CCCCC)[C@@H]1OC(=O)CCCCC	inactive
CCCCCCCC(=O)O[C@@H]1[C@H](OC[C@@H](O)[C@@H](O)CO)O[C@H](COC(=O)CCCCC)[C@@H](OC(=O)CCCCC)[C@@H]1OC(=O)CCCCC	Active
CCCCCCCC(=O)O[C@@H]1[C@H](OC[C@@H](O)[C@@H](O)[C@H](O)CO)O[C@H](COC(=O)CCCCC)[C@@H](OC(=O)CCCCC)[C@@H]1OC(=O)CCCCC	Active
CCCCCCCC(=O)O[C@@H]1[C@H](OCCO)O[C@H](COC(=O)CCCCC)[C@@H](OC(=O)CCCCC)[C@@H]1OC(=O)CCCCC	inactive
CCCCCCCC(=O)O[C@@H]1[C@H](OC[C@@H](O)[C@@H](O)[C@H](O)[C@H](O)[C@@H](O)CO)O[C@H](COC(=O)CCCCC)[C@@H](OC(=O)CCCCC)[C@@H]1OC(=O)CCCCC	Active
